Where a SMILES comes first, the peptide text is derived from it. Bridges are numbered along the chain shown (N, C = ends). [ ]: non-standard residue; d: D form. The star is where a group is joined. d(aIle) = CC[C@H](C)[C@@H](N)C(=O)O; d(aThr) = C[C@@H](O)[C@@H](N)C(=O)O; Hexanoyl(5-Me) = CC(C)CCCC(=O)*; Orn = NCCC[C@H](N)C(=O)O; Dhb = C/C=C(\N)C(=O)O
Experiments:
Type in all cases: cell-based, human
HT-29 = assay: SRB colorimetric assay of cell growth and viability, HT-29; settings: HT-29 cells, 48 hours exposure, SRB; for GI50: read-out: GI50 (growth inhibition at 50%); for CC50: read-out: LC50 (lethal concentration at 50%)
A-549 = assay: SRB colorimetric assay of cell growth and viability, A-549; settings: A-549 cells, 48 hours exposure, SRB; for GI50: read-out: GI50 (growth inhibition at 50%); for CC50: read-out: LC50 (lethal concentration at 50%)
MB-231 = assay: SRB colorimetric assay of cell growth and viability, MB-231; settings: for TGI (total growth inhibition): MB-231 cells, 48 hours exposure
Excerpt: The finality of this assay is to interrupt the growth of a “in vitro” tumor cell culture by means a continued exhibition of the cells to the sample to be testing.
A colorimetric type of assay, using sulforhodamine B (SRB) reaction has been adapted for a quantitative measurement of cell growth and viability [following the technique described by Philip Skehan, et al. (1990), New colorimetric cytotoxicity assay for anticancer drug screening, J. Natl. Cancer Inst., 82:1107-1112].
This form of the assay employs 96 well cell culture microplates of 9 mm diameter (Faircloth, 1988; Mosmann, 1983). Most of the cell lines are obtained from American Type Culture Collection (ATCC) derived from different human cancer types.
Cells are maintained in RPMI 1640 10% FBS, supplemented with 0.1 g/l penicillin and 0.1 g/l streptomycin sulfate and then incubated at 37° C., 5% CO2 and 98% humidity. For the experiments, cells were harvested from subconfluent cultures using trypsin and resuspended in fresh medium before plating.
Cells are seeded in 96 well microtiter plates, at 5×10^3 cells per well in aliquots of 195 μL medium, and they are allowed to attach to the plate surface by growing in drug free medium for 18 hours. Afterward, samples are added in aliquots of 5 μL in a ranging from 10 to 10^−8 μg/mL, dissolved in DMSO:EtOH:PBS (0.5:0.5:99). After 48 hours exposure, the antitumor effect are measured by the SRB methodology: cells are fixed by adding 50 μL of cold 50% (wt/vol) trichloroacetic acid (TCA) and incubating for 60 minutes at 4° C. Plates are washed with deionized water and dried. One hundred μL of SRB solution (0.4% wt/vol in 1% acetic acid) is added to each microtiter well and incubated for 10 minutes at room temperature. Unbound SRB is removed by washing with 1% acetic acid. Plates are air dried and bound stain is solubilized with Tris buffer. Optical densities are read on a automated spectrophotometric plate reader at a single wavelength of 490 nm.
The values for mean+/− SD of data from triplicate wells are calculated. Some parameters for cellular responses can be calculated: GI=growth inhibition, TGI=total growth inhibition (cytostatic effect) and LC=cell killing (cytotoxic effect).

SMILES	TGI (total growth inhibition) (HT-29) [Molar]	GI50 (HT-29) [µM]	CC50 (HT-29) [µM]	TGI (total growth inhibition) (A-549) [Molar]	GI50 (A-549) [µM]	CC50 (A-549) [µM]	TGI (total growth inhibition) (MB-231) [Molar]	GI50 (MB-231; read-out: GI50 (growth inhibition at 50%), MB-231 cells, 48 hours exposure) [µM]	CC50 (MB-231; read-out: LC50 (lethal concentration at 50%), MB-231 cells, 48 hours exposure) [µM]
C/C=C1\NC(=O)[C@H](Cc2ccccc2)NC(=O)[C@@H](C(C)C)NC(=O)[C@@H]([C@@H](C)CC)NC(=O)[C@H](NC(=O)[C@H](NC(=O)[C@H](CCCN)NC(=O)[C@H]2CCCN2C(=O)[C@H](NC(=O)[C@@H](NC(=O)[C@@H](NC(=O)[C@H](NC(=O)CCCC(C)C)C(C)C)[C@@H](C)O)C(C)C)C(C)C)C(C)C)[C@@H](C)OC(=O)[C@H](C(C)C)NC1=O [Compound 105, [D-Val^7]-KF] ({Hexanoyl(5-Me)}-[dV]TV[dV][dP][Orn][dV][d(aThr)][d(aIle)][dV]F[Dhb]V; ester 8-C)	8.87E−07	0.824	0.887	2.60E−06	2.28	3.04	6.33E−06		
C/C=C1\NC(=O)[C@H](Cc2ccccc2)NC(=O)[C@@H](C(C)C)NC(=O)[C@@H]([C@@H](C)CC)NC(=O)[C@H](NC(=O)[C@H](NC(=O)[C@@H](CCCN)NC(=O)[C@@H]2CCCN2C(=O)[C@H](NC(=O)[C@@H](NC(=O)[C@@H](NC(=O)[C@H](NC(=O)CCCC(C)C)C(C)C)[C@@H](C)O)C(C)C)C(C)C)[C@@H](C)CC)[C@@H](C)OC(=O)[C@H](C(C)C)NC1=O [Compound 106, [D-Orn^8, L-Pro^9]-KF]	6.77E−06	6.77	6.77	6.77E−06	6.77	6.77	6.77E−06	≥ 6.77	≥ 6.77

Reference: US20070117743A1, “New antitumoral compounds” (priority 2003, published 2007)
